This note sets out measurements from ChEMBL document CHEMBL5360561, “Design, synthesis and biological evaluation of fluorinated selective estrogen receptor degraders (FSERDs) --- A promising strategy for advanced ER positive breast cancer” (Eur J Med Chem, 2023).

Calls of active or inactive are those of the source. The calls are words filed in the database; no cut-off is given here.

Series [1] deals with MCF7. Put plainly: Antitumor activity against human MCF7 cells xenografted in nude mouse assessed as reduction in Ki67 expression at 30 mg/kg,po for 30 days daily by immunohistochemical analysis. In kind it is functional, organism-based. Particulars: time 30.0 day. (In general: Xenograft models place foreign cells or tissue in a host animal.)
Series [2] concerns MCF7. Kind of series: Antiproliferative activity against human MCF7 cells assessed as cell growth inhibition incubated for 5 days by MTT assay. In kind it is functional, cell-based. Particulars: MCF7, 120 h.
Series [3] has as its system Ishikawa. Kind of series: Antiproliferative activity against human Ishikawa cells assessed as cell growth inhibition at 20 uM incubated for 3 days by MTT assay. Particulars: 72 h, time 3 day. In kind it is functional. For orientation: Tetrazolium assays rely on reduction of a dye to a coloured formazan, in cell work by metabolically active cells.
Series [4] can be described thus: Tmax in ICR mouse at 3 mg/kg, iv and measured upto 24 hrs by LC-MS analysis. Particulars: in vivo. In kind it is ADME, organism-based.
A short description of series [5]: MRT(t) in ICR mouse at 30 mg/kg, po and measured upto 24 hrs by LC-MS analysis. In kind it is ADME, organism-based. Conditions: in vivo.
Series [6] is described as follows: Cmax in ICR mouse at 30 mg/kg, po and measured upto 24 hrs by LC-MS analysis. In kind it is ADME, organism-based. Set-up: time < 24 hrs, dose 30 mg/kg, route po. Conditions: in vivo.
The nature of series [7]: AUC (0 to infinity) in ICR mouse at 30 mg/kg, po and measured upto 24 hrs by LC-MS analysis. Details: time < 24 hrs, dose 30 mg/kg, route po. Particulars: in vivo. In kind it is ADME, organism-based.
A short description of series [8]: AUCt in ICR mouse at 30 mg/kg, po and measured upto 24 hrs by LC-MS analysis. In kind it is ADME, organism-based. Details: time < 24 hrs, dose 30 mg/kg, route po. Conditions: in vivo.
In series [9] the test system is MCF7. Put plainly: Induction of ER degradation in Estradiol stimulated human MCF7 cells assessed as decrease in PGR gene expression level at 1 to 10 uM incubated for 24 hrs by RT-qPCR analysis. Conditions: dose 1-10 µM. In kind it is cell-based. In general terms: Quantitative PCR measures a nucleic acid by following its amplification.
The nature of series [10]: Oral bioavailability in ICR mouse at 30 mg/kg and measured upto 24 hrs by LC-MS analysis. Conditions: in vivo. In kind it is ADME, organism-based.
The subject of series [11] is MCF7. Kind of series: Induction of ER degradation in human MCF7 cells transfected with ERE-luciferase plasmid assessed as decrease in estradiol induced ERE-luciferase activity by measuring luminescence at 10 uM incubated for 24 hrs by luciferase assay. In kind it is cell-based.
Series [12] in a line: Toxicity in mouse xenografted with human MCF7 cells assessed as morphological changes in heart at 30 mg/kg,po for 30 days daily by Hematoxylin and eosin staining based microscopy. Particulars: in vivo, 720 h, time 30 day. In kind it is organism-based.
A short description of series [13]: Toxicity in Sprague-Dawley rat uterus assessed as change in uterine wet weight at 30 mg/kg, po for 2 days consecutively. In kind it is organism-based. Particulars: in vivo, 48 h, time 2 day.
Series [14] in a line: Toxicity in mouse xenografted with human MCF7 cells assessed as body weight loss at 30 mg/kg,po for 30 days daily. In kind it is organism-based. Conditions: in vivo, 720 h, time 30 day.
The nature of series [15]: Toxicity in mouse xenografted with human MCF7 cells assessed as morphological changes in kidney at 30 mg/kg,po for 30 days daily by Hematoxylin and eosin staining based microscopy. In kind it is organism-based. Conditions: in vivo, 720 h, time 30 day.
The nature of series [16]: Apparent volume of distribution in ICR mouse at 3 mg/kg, iv and measured upto 24 hrs by LC-MS analysis. Particulars: in vivo, read-out: Vz. In kind it is ADME, organism-based.
Series [17] relates to MCF7. Kind of series: Antitumor activity against human MCF7 cells xenografted in nude mouse assessed as tumor growth inhibition at 30 mg/kg,po for 30 days daily. In kind it is functional, organism-based. Particulars: time 30.0 day.
Series [18] has as its system MCF7. Put plainly: Induction of ER degradation in human MCF7 cells at 0.001 to 10 uM incubated for 24 hrs by Western blot analysis. In kind it is cell-based. Particulars: dose 0.001-10 µM.
The test system of series [19] is MCF7. Kind of series: Induction of ER degradation in human MCF7 cells at 10 uM incubated for 24 hrs by Western blot analysis. In kind it is cell-based.
Series [20] is described as follows: Cmax in ICR mouse at 3 mg/kg, iv and measured upto 24 hrs by LC-MS analysis. In kind it is ADME, organism-based. Details: dose 3 mg/kg, time < 24 hrs, route iv. Conditions: in vivo.
Series [21] can be described thus: Half life in ICR mouse at 3 mg/kg, iv and measured upto 24 hrs by LC-MS analysis. In kind it is ADME, organism-based. Particulars: in vivo.
The nature of series [22]: Tmax in ICR mouse at 30 mg/kg, po and measured upto 24 hrs by LC-MS analysis. In kind it is ADME, organism-based. Particulars: in vivo.
The subject of series [23] is MCF7. Kind of series: Induction of cell cycle arrest in human MCF7 cells assessed as accumulation at G0/G1 phase at 10 uM incubated for 24 hrs by flow cytometry (Rvb= 46.53 +/- 0.44%). In kind it is functional.
Series [24] has as its system MCF7. Put plainly: Induction of ER degradation in human MCF7 cells at 10 uM incubated for 24 hrs by DAPI staining based immunofluorescence analysis. In kind it is cell-based.
Series [25] in a line: MRT(t) in ICR mouse at 3 mg/kg, iv and measured upto 24 hrs by LC-MS analysis. Conditions: in vivo. In kind it is ADME, organism-based.
Series [26] can be described thus: MRT (0 to infinity) in ICR mouse at 30 mg/kg, po and measured upto 24 hrs by LC-MS analysis. In kind it is ADME, organism-based. Particulars: in vivo.
Series [27] concerns MCF7. Put plainly: Induction of ER degradation in Estradiol stimulated human MCF7 cells assessed as decrease in TFF1 gene expression level at 1 to 10 uM incubated for 24 hrs by RT-qPCR analysis. In kind it is cell-based. Particulars: dose 1-10 µM.
Series [28] can be described thus: MRT (0 to infinity) in ICR mouse at 3 mg/kg, iv and measured upto 24 hrs by LC-MS analysis. In kind it is ADME, organism-based. Particulars: in vivo.
Series [29] can be described thus: AUC (0 to infinity) in ICR mouse at 3 mg/kg, iv and measured upto 24 hrs by LC-MS analysis. In kind it is ADME, organism-based. Details: time < 24 hrs, dose 3 mg/kg, route iv. Conditions: in vivo.
The test system of series [30] is Mus musculus. Put plainly: In vivo ER degradation in mouse xenografted with human MCF7 cells assessed as reduction in PR expression level in tumor at 30 mg/kg,po for 30 days daily by […]. In kind it is functional, organism-based. Conditions: time 30.0 day.
Series [31] is described as follows: Toxicity in mouse xenografted with human MCF7 cells assessed as morphological changes in spleen at 30 mg/kg,po for 30 days daily by Hematoxylin and eosin staining based microscopy. In kind it is organism-based. Conditions: in vivo, 720 h, time 30 day.
Series [32] has as its system MCF7. Kind of series: Induction of ER degradation in Estradiol stimulated human MCF7 cells assessed as decrease in GREB1 mRNA expression level at 1 to 10 uM incubated for 24 hrs by RT-qPCR analysis. In kind it is cell-based. Particulars: dose 1-10 µM.
Series [33] can be described thus: Half life in ICR mouse at 30 mg/kg, po and measured upto 24 hrs by LC-MS analysis. Conditions: in vivo. In kind it is ADME, organism-based.
Series [34] is described as follows: Clearance in ICR mouse at 3 mg/kg, iv and measured upto 24 hrs by LC-MS analysis. In kind it is ADME, organism-based. Particulars: in vivo.
Series [35] can be described thus: C0 in ICR mouse at 3 mg/kg, iv and measured upto 24 hrs by LC-MS analysis. In kind it is ADME, organism-based. Conditions: in vivo.
Series [36] relates to Mus musculus. Put plainly: In vivo ER degradation in mouse xenografted with human MCF7 cells assessed as reduction in ER expression level in tumor at 30 mg/kg,po for 30 days daily by […]. In kind it is functional, organism-based. Particulars: time 30.0 day.
The nature of series [37]: Toxicity in mouse xenografted with human MCF7 cells assessed as morphological changes in liver at 30 mg/kg,po for 30 days daily by Hematoxylin and eosin staining based microscopy. In kind it is organism-based. Conditions: in vivo, 720 h, time 30 day.
Series [38] can be described thus: AUCt in ICR mouse at 3 mg/kg, iv and measured upto 24 hrs by LC-MS analysis. In kind it is ADME, organism-based. Particulars: in vivo. Set-up: dose 3 mg/kg, time < 24 hrs, route iv.
Series [39] is described as follows: Toxicity in Sprague-Dawley rat uterus assessed as increase in uterine wet weight at 0.1 mg/kg, po for 2 days consecutively. In kind it is organism-based. Particulars: in vivo, 48 h, time 2 day.

Take `Cc1cc(F)cc(C)c1C(=O)c1sc2cc(F)ccc2c1Oc1ccc(/C=C/C(=O)O)cc1`: the outcome in [1], in [9], in [11], in [17], in series [19] and in series [24] was Active. For the same compound, the result in [27], in series [30], in [32] and in series [36] was Active. For the same compound, the IC50 (as a rule, the concentration that inhibits the measured activity by half) in [2] worked out at 55 nM. The inhibition (commonly the change of the read-out against control, counted positive when it falls) at 20 µM in series [3] stood at 12%. The Tmax – broadly, the time from dosing to the highest level – in series [4] worked out at 1.8 min; in [22] it was 0.333 h. Moreover, the mean residence time MRT last (commonly a mean duration of stay, worked out from the concentration-time curve) at 24 h in series [5] stood at 4.39 h; in [25], 0.978 h. For the same compound, the Cmax (in general, the highest concentration seen after dosing) turned out to be 5530 ng/mL in [6] and 4500 ng/mL in series [20]. In addition, the area under the curve AUC(0-inf) (commonly total exposure, with the tail of the curve extrapolated) in series [7] amounted to 29200 ng·h/mL; in series [29], 4640 ng·h/mL. Besides, the results for the AUC(0-t) at 24 h in series [8] and in [38] were 26600 ng·h/mL and 4610 ng·h/mL, respectively. Also, the bioavailability (usually the share of a dose that reaches the circulation, judged against a reference dose that is usually intravenous) in [10] amounted to 62.9%. Further, the Activity result in [12] is “Non-Toxic”; in series [13], “Non-Toxic”; in series [14] it was “Non-Toxic”; in [15] it was “Non-Toxic”; in series [18], “Dose-Dependent Effect”; in [23], 56.1%. In addition, the Activity result in [31] and in series [37] was “Non-Toxic” in each case. In addition, the Vd in series [16] was 1.13 L/kg. The half-life (in general, how long it takes for the measured level to halve) in [21] is 1.23 h; in series [33], 3.13 h. The figures for the mean residence time (MRT inf) in series [26] and in series [28] were 6.06 h and 1.04 h, respectively. Besides, the clearance (commonly the rate of elimination divided by the concentration) in series [34] was 11 mL/min/kg. The compound further showed a C0 at 24 h in series [35] of 4840 ng/mL.
For the compound `C[C@]12CC[C@@H]3c4ccc(O)cc4CC[C@H]3[C@@H]1CC[C@@H]2O` [ESTRADIOL], in series [39], the Activity result is reported as “Toxic”.
